In patent publication US20020114804A1, “A METHOD OF TREATING INFECTION OF SUTURES AND PROSTHETIC DEVICES” (priority 1996, published 2002):

Assays:
Type in all cases: cell-based, human
monocytes [1] = assay: Monocyte migration through Matrigel or Matrigel/tenascin coated filters; conditions: for Inhibition of chemoattractant-stimulated monocyte migration: Matrigel-coated filters, depending on chemoattractant, human tenascin 5 μg
Text: Mononuclear cells were isolated by centrifugation of heparinized human blood on Ficoll-Hypaque gradients as described (65, 66). The mononuclear cell fraction was resuspended in RMPI 1640 medium supplemented with 10% pooled human serum or autologous serum and used immediately for monocyte migration studies. For some experiments, monocytes were obtained by centrifugation of whole blood or of white blood cells concentrated from a unit of blood (leukopak), on Nycodenz gradients as described (39). More than 90% of the nucleated cells obtained by this Nycodenz method were monocytes, as assessed by their ability to phagocytose IgG-coated red blood cells.
(§1) Cultured monocytes were prepared by allowing 10^7 total mononuclear cells, suspended in 10 ml of RMPI 1640 medium supplemented with 10% pooled human serum (1640+HS), or 10% autologous serum (1640+AS), to adhere to Falcon T-150 tissue culture Petri dishes for 2 h at 37° C. Non-adherent cells were removed by washing, leaving an adherent cell population consisting of greater than 98% monocytes as measured by their capacity to phagocytose IgG coated sheep red blood cells. For migration studies, monocytes were maintained in culture for 24 h in RPMI 1640+HS or AS, and detached from the dishes by gentle pipetting of 10 ml of ice cold phosphate buffered saline (without Ca^2+ or Mg^2+) containing 1.0 mM EDTA. The cells recovered were resuspended in RPMI-1640+HS as described (65).
(§2) Cell culture inserts containing polyethylene terephthalate filters, 8-μm pore size (Becton-Dickinson), were overlaid with 0.1 ml of Matrigel (20-25 μg protein/filter) (Collaborative Research, Bedford, Mass.), and incubated at room temperature until they dried. These Matrigel-coated filters were washed with phosphate buffered saline containing 1.0 mM Mg^2+ and 1.0 mM Ca^2+ (PBS). 0.1 ml of a PBS solution (pH 7.2) containing the indicated amount of purified chick brain tenascin was added to some of the inserts. The filters were incubated at room temperature until they dried. These protein-coated filters were washed again with PBS and used within 12 h for cell migration studies. To prepare collagen I-coated inserts, filters were coated with rat tail collagen I (ICN Biochemicals, Costa, Mesa, Calif.) (400 μg/ml in PBS), by adding 0.1 ml of this solution to an insert and incubating the inserts at room temperature for 24 h. Some of these collagen I-coated filters were then incubated with tenascin as described above.
Monocytes: Cell culture inserts were placed in 16 mm wells containing 0.5 mls of RPMI-1640+HS or AS in the presence or absence of a chemoattractant. 0.5 ml of RPMI-1640+HS or AS serum containing between 2-10×10^5 mononuclear phagocytes was added to the upper chamber of the inserts and the inserts were placed in a humidified CO2 incubator at 37° C. After 24 h the medium in the lower chamber was recovered and its cell content assayed using either a Coulter counter or a hemocytometer. […] Cell counts reported are the average number of cells recovered from the medium in the lower compartment of chemotaxis chambers. Over 90% of the cells in the lower chamber were identified as monocytes based on their morphology, their capacity to phagocytose IgG coated sheep red cells, and their staining with fluorescein-conjugated anti α,β monoclonal antibody (Oncogene Sciences, Uniondale, N.Y.). Unless otherwise indicated, all values are the average of duplicate samples run in parallel in a representative experiment. Each experiment was repeated at least three times with similar results.

PMNs [2] = assay: PMN migration through Matrigel or Matrigel/tenascin coated filters; conditions: for Inhibition of chemoattractant-stimulated PMN migration: Matrigel-coated filters, depending on chemoattractant, human tenascin 5 μg
Protocol: Polymorphonuclear leukocytes (PMN), were prepared as described (7) from heparinized human blood by sedimentation on Ficoll-Hypaque gradients. Contaminating red blood cells were removed by hypotonic lysis. The purity of PMN isolated by this method was >95% as determined by Wright-Giemsa staining.
as §2
PMN: 250 μl of PBS [supplemented with 5.5 mM glucose and 0.1% human serum albumin (HSA) (PBSG-HSA)] containing 1×10^6 PMNs was placed in the upper compartment of each insert. 250 μl of PBSG-HSA with or without chemoattractant, as indicated, was added to the bottom compartment. The inserts were incubated for about 4 h at 37° C. in a humidified atmosphere containing 95% air/5% CO2. […] The medium in the lower compartment was collected and its content of PMN determined using a Coulter Counter, as described in Example 1.

monocytes [3] = assay: Monocyte migration through collagen I coated inserts; conditions: tenascin added to collagen I
Protocol: as §1
Cell culture inserts containing polyethylene terephthalate filters, 8-μm pore size (Becton-Dickinson), were overlaid with 0.1 ml of Matrigel (20-25 μg protein/filter) (Collaborative Research, Bedford, Mass.), and incubated at room temperature until they dried. These Matrigel-coated filters were washed with phosphate buffered saline containing 1.0 mM Mg^2+ and 1.0 mM Ca^2+ (PBS). 0.1 ml of a PBS solution (pH 7.2) containing the indicated amount of purified chick brain tenascin was added to some of the inserts. The filters were incubated at room temperature until they dried. […]

PMN or monocytes = assay: Adhesion of PMN or monocytes to tenascin-impregnated Matrigel
PMNs [4] = assay: Exclusion of rhodamine-labeled polyethylene glycol (Rh-PEG) from zones of adhesion of PMNs; conditions: fMLP in combination with IL-8 or LTB4, fibrin
Protocol: Rh-PEG binds avidly to protein-coated surfaces, and can be detected easily by its fluorescence. Individual wells on glass microslides (Carlson Scientific, Peotone, Ill.) were coated with either fibrin, Matrigel or collagen IV in a manner similar to that for coating cell culture inserts except that 20 μl of the various solutions were used per well. 20 μl of PMNs (10^6 cells/ml in PBSG-HSA) were added to each well and PMNs were allowed to adhere for 15 mins at 37°. The cells were washed in PBS, fixed with 3.7% paraformaldehyde in PBS for 10 min, washed again with PBS, and further incubated with 10 kDa Rh-PEG at room temperature for 60 min. The preparation then was washed with PBS and immediately observed by phase and fluorescent microscopy at 400× magnification. Average values from three different experiments are reported as the percentage of PMNs that excluded Rh-PEG from zones of adherence between the cells and the underlying matrix.

PMNs [5] = assay: PMN migration through gels of Matrigel or collagen IV; conditions: added to the bottom chamber
Protocol: (§3) Becton-Dickinson cell culture inserts (pore sizes 3 or 8 μm: Franklin Lakes, N.J.) were overlaid with the following proteins:
Collagen type IV and Matrigel matrices: 0.1 ml PBS containing 100 μg human placental collagen IV (Fluka Chemical Corp., Ronkonkoma, N.Y.), or 80 μg of reconstituted basement membrane proteins (Matrigel, Collaborative Research, Bedford, Mass.), was placed into each insert and allowed to gel at room temperature for 24 hrs.
PMNs were prepared from fresh heparinized blood from healthy adult volunteers by sedimentation on Ficoll-Hypaque gradients. Contaminating red blood cells were removed by hypotonic lysis, as described (7). The purity of PMN isolated by this method is >95% as determined by Wright-Giemsa staining (7). 10^6 PMNs in 250 μl of PBS supplemented with 5.5 mM glucose and 0.1% human serum albumin (PBSG-HSA), were placed in the upper compartment of each insert and incubated for 0-6 hrs at 37° C. in a humidified atmosphere containing 95% air/5% CO2. At the times and concentrations specified, chemoattractants/cytokines were added to the top or bottom compartment in 250 μl of PBSG-HSA. […] The medium in each lower compartment was collected and its content of PMNs was determined using either a Coulter Counter or a hemocytometer. […] Counts are expressed as the average number of PMNs that migrated into the lower compartment. […]

PMNs [6] = assay: PMN migration through filters coated with fibrinogen or fibronectin
Protocol: as §3
Fibrinogen or fibronectin: 0.1 ml of PBS containing 100 μg/ml fibrinogen or fibronectin (New York Blood Center, New York, N.Y.), was placed into each insert (pore size 3 μm). Inserts were incubated at 37° C. for 60 min and washed with 250 μl of PBS. Filters coated with fibrinogen or fibronectin were diffusely fluorescent as visualized by epifluorescent microscopy when incubated with the corresponding antibody [fluorescein-labeled anti-fibrinogen, or anti-fibronectin monoclonal antibodies (Cappel, Malvern, Pa.)], while uncoated filters, or filters incubated with fluorescein-labeled antibody of the opposite specificity, were not.
PMNs were prepared from fresh heparinized blood from healthy adult volunteers by sedimentation on Ficoll-Hypaque gradients. Contaminating red blood cells were removed by hypotonic lysis, as described (7). The purity of PMN isolated by this method is >95% as determined by Wright-Giemsa staining (7). […] The medium in each lower compartment was collected and its content of PMNs was determined using either a Coulter Counter or a hemocytometer. […] Counts are expressed as the average number of PMNs that migrated into the lower compartment. […]

PMNs [7] = assay: PMN migration through fibrin gels in Boyden-type chemotaxis chambers
Protocol: as §3
Fibrin gels: 1 Unit of thrombin (a gift from Dr. John Fenton, Albany Medical College, Albany, N.Y.), in 5 μl of PBS was added first to each insert. 0.1 ml phosphate buffered saline supplemented with Ca^2+ and Mg^2+ (PBS) containing 100 μg commercial grade fibrinogen (Calbiochem. Inc., San Diego, Calif.) or purified fibrinogen [a gift from Dr. Jeffery Weitz, (MacMaster University, Hamilton, On.)] was then placed into each 8.2 mm diameter insert on top of the thrombin. The mixture was incubated at 37° C. for 5 min to allow fibrin gel formation (determined by visual inspection). 1 Unit PPACK (Calbiochem Inc., San Diego, Calif.; 10^−5 M final concentration), in 100 μl medium was added to each insert to inhibit thrombin, and gels were washed with 250 μl PBS to remove inactivated thrombin. The fibrin gels formed were about 1 mm thick as measured under a dissecting microscope.
PMNs were prepared from fresh heparinized blood from healthy adult volunteers by sedimentation on Ficoll-Hypaque gradients. Contaminating red blood cells were removed by hypotonic lysis, as described (7). The purity of PMN isolated by this method is >95% as determined by Wright-Giemsa staining (7). 10^6 PMNs in 250 μl of PBS supplemented with 5.5 mM glucose and 0.1% human serum albumin (PBSG-HSA), were placed in the upper compartment of each insert and incubated for 0-6 hrs at 37° C. in a humidified atmosphere containing 95% air/5% CO2. At the times and concentrations specified, chemoattractants/cytokines were added to the top or bottom compartment in 250 μl of PBSG-HSA. At the end of the incubation, the chambers were shaken to dislodge PMNs from the lower surface of the inserts. The medium in each lower compartment was collected and its content of PMNs was determined using either a Coulter Counter or a hemocytometer. Both methods gave similar results. Counts are expressed as the average number of PMNs that migrated into the lower compartment. Unless otherwise indicated, all values reported are the average of six data points from at least 3 independent experiments.

PMNs [8] = assay: PMN migration through fibrin gels with anti-integrin antibodies or synthetic peptides; conditions: PMNs incubated with antibody (2 μg/ml) or peptide (1 mg/ml); fMLP 10^−7M, 6 hrs
Protocol: Fibrin gels were formed on filters of cell culture inserts as described in Experimental Peocedures and fMLP (10^−7M) or LTB4 (10^−7M) was added to the medium in the lower chamber. FIG. 10A—10^6 PMNs were pre-incubated in medium containing antibodies against rat or human β1 integrins, or antibodies against the α5 subunit of human α5β1 integrin, or against the human β2 integrin complement receptor 3 (CR3), or against the human β2 integrin p150/95, or against human β3 integrins for 15 min at 4° C. PMNs were placed in the upper chamber of cell culture inserts in the same medium and the inserts were incubated for 6 hrs at 37° C., at which time the number of cells in the lower chamber was determined using a Coulter Counter. […] The mixture was added to the upper chamber of cell culture inserts and the inserts were incubated for 6 hrs at 37° C., at which time the number of cells in the lower chamber was counted as in FIG. 10A.
Fibrin gels: 1 Unit of thrombin (a gift from Dr. John Fenton, Albany Medical College, Albany, N.Y.), in 5 μl of PBS was added first to each insert. […] The mixture was incubated at 37° C. for 5 min to allow fibrin gel formation (determined by visual inspection). […] The fibrin gels formed were about 1 mm thick as measured under a dissecting microscope. […]

[9] = added in combination in bottom compartment, 6 hr

Compound: chick brain tenascin: tenascin purified from 14-day embryonic chick brains
- Inhibition of chemoattractant-stimulated monocyte migration (monocytes [1]): 65-80%
- Amount causing half maximal inhibition of TNF-stimulated monocyte migration (monocytes [1]; amount added to Matrigel-coated insert, cultured monocytes, 24 h): about 0.75 μg
- Effect on monocyte migration through Matrigel in response to TNF, fMLP or LTB4 (monocytes [1]; tenascin added to Matrigel): significantly reduced
- Effect on monocytes that migrated in the absence of chemoattractant (monocytes [1]; tenascin added to Matrigel): no significant effect
- Inhibition of chemoattractant-stimulated PMN migration (PMNs [2]): 65-80%
- Effect on PMN migration through Matrigel in response to TNF, fMLP or LTB4 (PMNs [2]; tenascin added to Matrigel): significantly reduced
- Effect on PMN that migrated across Matrigel in the absence of chemoattractant (PMNs [2]; tenascin added to Matrigel): further reduced
- Reduction of TNF- or LTB4-stimulated monocyte migration through collagen I coated inserts (monocytes [3]): at least 60%
- Number of chemoattractant-stimulated PMN or monocytes adhered to tenascin-impregnated Matrigel over Matrigel alone (PMN or monocytes): no increase

Compound: human tenascin: tenascin obtained from cultured human glioma cells, from GIBCO-BRL
- Inhibition of chemoattractant-stimulated monocyte migration (monocytes [1]): at least 50%
- Inhibition of chemoattractant-stimulated PMN migration (PMNs [2]): at least 50%

Compound: CSCC[C@H](NC=O)C(=O)N[C@@H](CC(C)C)C(=O)N[C@@H](Cc1ccccc1)C(=O)O [fMLP, formyl-methionyl-leucyl-phenylalanine]
- Cultured monocytes that migrated through Matrigel-coated inserts (monocytes [1]; Matrigel alone): ~15%
- Freshly isolated human monocytes that migrated through Matrigel-coated inserts (monocytes [1]; Matrigel alone): About 20%
- PMNs that migrated through Matrigel-coated inserts (PMNs [2]; Matrigel alone): ~10%
- PMNs forming zones of adhesion that excluded 10 kDa Rh-PEG (PMNs [4]): about 50%
- PMN migration through gels of Matrigel or collagen IV (PMNs [5]): stimulated PMN migration
- PMN migration through filters with adsorbed fibrinogen or fibronectin (PMNs [6]): promoted PMN migration
- Effect of serum on PMN migration through fibrin gels in response to the chemoattractant (PMNs [7]; 20% human serum in upper and lower compartments): nor did the presence of serum promote
- Effect on PMN migration through fibrin gels in response to IL-8 (PMNs [7]; [9]): reduced
- Effect on PMN migration through fibrin gels in response to LTB4 (PMNs [7]; [9]): reduced
- PMN migration through fibrin gels (in words) (PMNs [7]; chemoattractant in lower compartment, zymosan-activated human plasma 2-10%): not

Compound: GRGDSP
- PMN migration through fibrin gels in response to fMLP (PMNs [8]): migrated through fibrin gels
